US9155729B2, “Thiazolidinedione analogues” (Metabolic Solutions Development Company, LLC, priority 2006, dated 2015)
Marks after values point to notes of the source that are not given here.

Columns and labels:
Diabetic KKAy mice [1] = test: Glucose and insulin in diabetic KKAy mice dosed 7 days with compound 1 or rosiglitazone; assay type: in vivo; settings: 20 mg rosiglitazone or 100 mg/kg compound 1, fasting, 8th day, mean, 8 mice/group
Experimental: (§1) KKAy mice were dosed for 7 days with 20 mg rosigltiazone (positive control) and 100 mg/kg of compound 1 in suspension (1% sodium methyl carboxymethyl cellulose/0.01% Tween 80). On the 8th day, fasting, glucose, and insulin were measured, see Table D. The liver was isolated was used to measure hepatic mRNA for aP2, a biomarker for PPARγ activation in vivo. […] Data are mean and (SEM) for 8 mice/group.

PPARγ = molecular target: T1, PPARγ (Homo sapiens, UniProt P37231); test: Commercial PPARγ binding assay (Invitrogen, PPAR-LBD/Fluormone PPAR Green complex); settings: for PPARγ binding signal (fluorescence polarization, Fluormone PPAR Green displacement): mean of three experiments
T1 construct: purchased Invitrogen Corporation, Carlsbad, Calif
T1 sequence (P37231 238-503 limits assumed): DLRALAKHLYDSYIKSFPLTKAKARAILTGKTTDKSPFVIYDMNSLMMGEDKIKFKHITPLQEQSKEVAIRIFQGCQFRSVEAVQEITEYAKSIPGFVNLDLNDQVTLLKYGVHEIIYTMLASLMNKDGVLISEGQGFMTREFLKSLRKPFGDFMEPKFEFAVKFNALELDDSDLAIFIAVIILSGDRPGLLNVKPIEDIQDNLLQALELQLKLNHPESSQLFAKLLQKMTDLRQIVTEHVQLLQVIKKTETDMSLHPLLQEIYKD
Experimental: The ability of several exemplary compounds of the present invention, shown in Table A, to bind to PPARγ was measured using a commercial binding assay (Invitrogen Corporation, Carlsbad, Calif.) that measures the test compounds ability to bind with PPAR-LBD/Fluormone PPAR Green complex. These assays were performed on three occasions with each assay using four separate wells (quadruplicate) at each concentration of tested compound. The data are mean and SEM of the values obtained from the three experiments. […] Compounds were added at the concentrations shown, which range from 0.1-100 micromolar.

aP2 = test: Hepatic mRNA for aP2, biomarker for PPARγ activation in vivo, KKAy mice
Experimental: as §1

Diabetic KKAy mice [2] = test: Glucose, insulin and triglyceride in diabetic KKAy mice, 4 days oral dosing; assay type: in vivo; settings: 93 mg/kg orally for 4 days, fasted, blood approx. 18 hours after last dose, mean and SEM, N=6-12
Experimental: The insulin sensitizing and antidiabetic pharmacology are measured in the KKA^Y mice as previously reported [Hofmann, C., Lomez, K., and Colca, J. R. (1991). Glucose transport deficiency corrected by treatment with the oral anti-hyperglycemic agent Pioglitazone. Endocrinology, 129:1915-1925.]. Compounds are formulated in 1% sodium carboxy methylcellulose, and 0.01% tween 20 and dosed daily by oral gavage.
Compounds were formulated by suspension and orally dosed to KKAy mice at 93 mg/kg for 4 days. The compounds were first dissolved in DMSO and then placed into aqueous suspension containing 7-10% DMSO, 1% sodium methylcarboxycellulose, and 0.01% Tween 20. On the fifth day, the mice were fasted and blood samples were obtained approximately 18 hours after the last dose. The parameters were measured by standard assay methods. Data are mean and SEM N=6-12 mice.

CCc1ccc(C(=O)COc2ccc(CC3SC(=O)NC3=O)cc2)nc1 (stereo not drawn) [Compound 1]
Glucose (Diabetic KKAy mice [1]): 291 mg/dL
Insulin (Diabetic KKAy mice [1]): 1.9 ng/mL
PPARγ binding signal (fluorescence polarization, Fluormone PPAR Green displacement) (PPARγ; 1 μM compound): 223
PPARγ binding signal (fluorescence polarization, Fluormone PPAR Green displacement) (PPARγ; 3 μM compound): 228
PPARγ binding signal (fluorescence polarization, Fluormone PPAR Green displacement) (PPARγ; 10 μM compound): 207
PPARγ binding signal (fluorescence polarization, Fluormone PPAR Green displacement) (PPARγ; 50 μM compound): 174
PPARγ binding signal (fluorescence polarization, Fluormone PPAR Green displacement) (PPARγ; 100 μM compound): 170
PPARγ binding signal (fluorescence polarization, Fluormone PPAR Green displacement) (PPARγ; .1 μM compound): 227
PPARγ binding signal (fluorescence polarization, Fluormone PPAR Green displacement) (PPARγ; .3 μM compound): 232
Binding to PPARγ (in words) (PPARγ; referring to FIG. 1 and Table B): particularly poor binders
aP2 (relative expression in liver) (aP2; KKAy mice dosed 7 days, 20 mg rosiglitazone or 100 mg/kg compound 1, hepatic mRNA, mean, 8 mice/group): 5.7
Activation of PPARγ in vivo as compared to the positive control (in words) (aP2; KKAy mice, hepatic aP2 mRNA, 100 mg/kg for 7 days): little activation of PPARγ
Glucose (Diabetic KKAy mice [2]): 402 +/− 25* mg/dl
Insulin (Diabetic KKAy mice [2]): 7.6 +/− 1.9* ng/ml
Triglycerides (Diabetic KKAy mice [2]): 115 +/− 18* mg/dl
